Results from US20120302618A1, “USE OF BENZYDAMINE IN THE TREATMENT OF P40-DEPENDENT DISEASES” (AZIENDE CHIM. RIUN. ANG. FRANC. A.C.R.A.F. S.p.A., priority 2009, published 2012).
Values joined by “and” are separate entries in the source; they are usually repeats but may differ in a detail not shown here. Equal values may be shown once.

Key:
[1] = system: p40; assay: Inhibition of p40 protein production by anti-CD3 stimulated human PBMCs (Luminex); format: cell-based
Method: (§1) The capacity of the compound to inhibit the production of the protein p40 by anti-CD3 stimulated human PBMCs (peripheral blood mononuclear cells) was evaluated. The cells were placed in 96-well plates at a concentration of 2×10^5 cells/well. The compound was tested on a 6-point ½-log dose curve (in the range 0.3-100 μM) and incubated for 1 hour. The cells were then stimulated with anti-CD3 (4 μg/ml) for 48 hours. The amount of p40 produced was measured in the supernatants, suitably diluted with buffer, by using the Luminex 100 system.

[2] = system: p40; assay: Inhibition of p40 mRNA expression by LPS-stimulated MonoMac6 cells (real-time PCR); format: cell-based, human; conditions: 75 μM, 1 h preincubation, LPS 100 ng/ml for 4 h
Method: The capacity of benzydamine to inhibit the expression of p40 by lipopolysaccharide (LPS)-stimulated MonoMac6 cells was evaluated. The cells were placed in 96-well plates at a concentration of 50 000 cells/well. The compound was tested at the concentration of 75 μM and incubated for 1 hour. The cells were then stimulated with LPS (100 ng/ml) for 4 hours. The total RNA was extracted from the cell pellet using the RNeasy mini kit (Qiagen), reverse-transcribed with the TaqMan Reverse transcription reagents synthesis kit (Applied Biosystems) and the cDNA obtained was used for the real-time PCR reaction. The amplification was obtained in 96-well plates using the ABI Prism 7000 sequence detection system (Applied Biosystems), by applying the following temperature profile: 50° C. for 2 minutes, 95° C. for 10 minutes and 45 cycles at 95° C. for 15 seconds and 60° C. for 1 minute. For the amplification, a set of primers and probe specific for human p40 was used (Applied Biosystems, RefSeq NM_002187.2). A set of primers and probe for β-actin was used in separate wells as an internal control of the samples for the purposes of normalization. Once the reaction had taken place, the fluorescence data were analysed using the ABI Prism 7000 SDS software, by calculating the threshold cycle (Ct) for each sample and subsequently performing a relative quantification via the ΔΔCt method.

[3] = system: TNF; conditions: mice; cited from earlier work
[4] = system: TNF; assay: Inhibition of TNF production by anti-CD3 stimulated human PBMCs (Luminex); format: cell-based
Method: as §1, with “expression” for “production”, “TNF” for “p40”

[5] = 0 μM (so in the source), anti-CD3 4 μg/ml 48 h, human PBMCs
[6] = PBMC, 1 μM, anti-CD3 4 μg/ml 48 h, human PBMCs
[7] = PBMC, 3 μM, anti-CD3 4 μg/ml 48 h, human PBMCs
[8] = PBMC, 10 μM, anti-CD3 4 μg/ml 48 h, human PBMCs
[9] = PBMC, 30 μM, anti-CD3 4 μg/ml 48 h, human PBMCs
[10] = PBMC, 100 μM, anti-CD3 4 μg/ml 48 h, human PBMCs
[11] = PBMC, anti-CD3 stimulated human PBMCs, 48 h
[12] = dose curve 0.3-100 μM, human PBMCs

CN(C)CCCOc1nn(Cc2ccccc2)c2ccccc12 [Benzydamine]
% inhibition of p40 production [1, 5]: 0%
inhibition at 1 µM [1, 6]: 23%
inhibition at 3 µM [1, 7]: 24%
inhibition at 10 µM [1, 8]: 44%
inhibition at 30 µM [1, 9]: 97%
inhibition at 100 µM [1, 10]: 99%
IC50 [1, 11]: 10.1 µM
inhibition of anti-CD3 induced p40 production, range over dose curve [1, 12]: 23-99%
% inhibition of LPS-induced p40 mRNA expression [2]: 80%
dose required for a significant inhibiting effect on TNF production [3]: 20 mg/kg and 40 mg/kg
% inhibition of TNF production [4, 5]: 7%
inhibition at 1 µM [4, 6]: 8%
inhibition at 3 µM [4, 7]: 12%
inhibition at 10 µM [4, 8]: 22%
inhibition at 30 µM [4, 9]: 44%
inhibition at 100 µM [4, 10]: 70%
IC50 [4, 11]: 43.1 µM
IC50 for TNF relative to IC50 for p40 ([4]; anti-CD3 stimulated human PBMCs): about 4 fold
inhibition of anti-CD3 induced TNF production, range over dose curve [4, 12]: 8-70%
